Test results: article PMC8453901, “GLPG1205, a GPR84 Modulator: Safety, Pharmacokinetics, and Pharmacodynamics in Healthy Subjects” (Clinical Pharmacology in Drug Development, 2021)
“Also recorded” adds a separate entry of the source. Where two headings read alike, the source gives them in different places.

How the values were obtained:
[1] = Study 1 MAD part: plasma and urine pharmacokinetics, once daily for 14 days; type: in vivo, human; conditions: for AUC / Cmax / Tmax / half-life: male, human, plasma, oral; for AUC: dosing interval 24 hours; for Tmax: median (minimum-maximum)
Experimental: GLPG1205 or matching placebo were administered as an oral nanosuspension in the morning in a fed condition as an outpatient. For both the single ascending doses (SADs) and multiple ascending doses (MADs) parts of the study, subjects attended a screening visit (21 to 2 days before first study drug administration) and a follow‐up visit (7 to 10 days after the last dose).
In the MAD part of study 1, 24 healthy male subjects in 3 cohorts (C, D, and E; n = 8 each) each received GLPG1205 or matching placebo once daily for 14 days. Cohorts C, D, and E received GLPG1205 50 mg once daily or matching placebo, GLPG1205 100 mg once daily or matching placebo, and GLPG1205 200 mg once daily or matching placebo, respectively. Within a cohort, subjects were randomized to receive GLPG1205 or matching placebo in a 3:1 ratio. An interval of at least 6 days was enforced between cohorts. Subjects were kept in‐house from the evening of day –1 until ≈26 hours after first dosing (morning of day 2), and from the evening of day 13 to the morning of day 15. Administration of the study drug was performed daily at the clinical pharmacology unit.
In the SAD part of study 1, blood samples (2 mL) for PK assessments were obtained before dosing and at multiple time points on the day of study drug administration (before dosing and 0.5, 1, 2, 4, 6, 8, and 12 hours after dosing) and at 24, 48, and 72 hours after dosing. The predose sample for the next dose level was also used in PK analysis (168 hours after dosing). […] In the MAD part of study 1, blood samples (2 mL) were obtained on days 1, 2, 4, 5, 6, 8, 10, 12, 14, 15, 16, 17, and 18 and at follow‐up (approximately 7 to 10 days after the last dose). These PK blood samples were taken after dosing (1, 2, 4, 6, 8, 12, and 24 hours) on day 1; before dosing on days 4, 6, 8, and 10; and after dosing (1, 2, 4, 6, 8, 12, 24, 72, and 96 hours) on day 14. The following additional PK blood samples were also taken: cohort C, before dosing on day 5; and cohorts D and E, before dosing on day 12. Urine samples were obtained from fractions collected over 6‐ or 12‐hour periods after dosing on days –1, 1, 2, 13, 14, and 15; samples obtained on days –1 and 13 were for cytochrome P450 (CYP) induction analysis only. In study 2, blood samples (2 mL) were obtained on days 1, 2, 5, 7, 10, 14, 15, 17, and 20 and at follow‐up (approximately 21 days after end of study medication administration). Blood samples were taken before dosing and at 1, 2, 4, 6, 8, 12, and 24 hours after drug administration on days 1 and 14 and before dosing on other sampling days.
Blood samples were immediately chilled (ice bath), and the plasma was separated by centrifugation (4°C for 10 minutes at ≈1500 g) within 30 minutes of blood collection.
GLPG1205 plasma concentrations were determined using a validated liquid chromatography with tandem mass spectrometry method. After a protein precipitation with methanol, a chromatographic separation was performed on a Kinetex C18 column (50×3.0 mm, 2.6 μm; Phenomenex, Torrance, California) set at 40°C by using a Nexera high‐performance liquid chromatography (HPLC) system (Shimadzu, Kyoto, Japan) or an Infinity HPLC system (Agilent Technologies, Diegem, Belgium) in isocratic elution mode. A QTRAP6500, QTRAP4000, or API4000 mass spectrometer (AB Sciex, Nieuwerkerk aan den Ijssel, The Netherlands) equipped with a TurboIonSpray probe operated in the multiple reaction monitoring in positive mode was used for quantification. The calibration curves in plasma were linear over the range of 1 to 1000 ng/mL with 1/x^2 as weighting factor. The limit of quantification of the assay in the plasma samples was set at 1 ng/mL.
GLPG1205 concentrations in urine fractions were determined by using a qualified liquid chromatography with tandem mass spectrometry method derived from the plasma method. […]

[2] = system: cytochrome P450 (CYP) 3A4 and CYP2C19; conditions: background statement, no reference given; cited from earlier work
[3] = 50 mg, 50 mg once daily, day 1, mean (CV%)
[4] = 50 mg, 50 mg once daily, day 14, mean (CV%)
[5] = 100 mg, 100 mg once daily, day 1, mean (CV%)
[6] = 100 mg, 100 mg once daily, day 14, mean (CV%)
[7] = 200 mg, 200 mg once daily, day 1, mean (CV%)

Structure (SMILES): O=c1nc(OC[C@@H]2COCCO2)cc2n1CCc1cc(C#CC3CC3)ccc1-2 [GLPG1205, 9‐cyclopropylethynyl‐2‐((S)‐1‐[1,4]dioxan‐2‐ylmethoxy)‐6,7‐dihydropyrimido[6,1‐a]isoquinolin‐4‐one]
- Ae(Τ), amount excreted in urine over 24 hours ([1]; 50 mg once daily, day 1, mean (CV%)): 0.0785 (22.9) % dose
- Ae(Τ), amount excreted in urine over 24 hours ([1]; 50 mg once daily, day 14, mean (CV%), N = 5): 0.428 (22.0)^N = 5 % dose
- Ae(Τ), amount excreted in urine over 24 hours ([1]; 100 mg once daily, day 1, mean (CV%), N = 4): 0.0746 (30.1)^N = 4 % dose
- Ae(Τ), amount excreted in urine over 24 hours ([1]; 100 mg once daily, day 14, mean (CV%)): 0.480 (27.2) % dose
- Ae(Τ), amount excreted in urine over 24 hours ([1]; 200 mg once daily, day 1, mean (CV%)): 0.123 (27.0) % dose
- dose-proportionality of steady-state exposure (Cmax and AUCΤ) ([1]; 50 to 100 mg once daily): increased in proportion with the dose; also recorded: increased proportionally with the dose
- excretion of unchanged GLPG1205 in urine over 24 hours ([1]; at steady state on day 14): < 0.48 % of the administered dose
- AUC [1, 3]: 7580 ng·h/mL
- Cmax [1, 3]: 469 ng/mL
- Tmax ([1]; 50 mg, 50 mg once daily, day 1): 3 h
- AUC [1, 4]: 41300 ng·h/mL
- Cmax [1, 4]: 2050 ng/mL
- half-life ([1]; 50 mg, 50 mg once daily, day 14, mean (CV%), read-out: t1/2,λz (converted)): 76.7 h
- Tmax ([1]; 50 mg, 50 mg once daily, day 14): 4 h
- AUC [1, 5]: 14400 ng·h/mL
- Cmax [1, 5]: 875 ng/mL
- Tmax ([1]; 100 mg, 100 mg once daily, day 1): 4 h
- AUC [1, 6]: 82700 ng·h/mL
- Cmax [1, 6]: 3910 ng/mL
- half-life ([1]; 100 mg, 100 mg once daily, day 14, mean (CV%), read-out: t1/2,λz (converted)): 88.6 h
- Tmax ([1]; 100 mg, 100 mg once daily, day 14): 4 h
- AUC [1, 7]: 42900 ng·h/mL
- Cmax [1, 7]: 2450 ng/mL
- Tmax ([1]; 200 mg, 200 mg once daily, day 1): 3 h
- Cmax ([1]; 200/150 mg once daily (150 mg as of day 8), day 14, n = 3, mean (CV%)): 8900 ng/mL
- AUC ([1]; 200/150 mg once daily, day 14, n = 3, mean (CV%)): 195000 ng·h/mL
- half-life ([1]; 200/150 mg once daily, day 14, n = 3, mean (CV%), read-out: t1/2,λz (converted)): 141 h
- Tmax ([1]; 200/150 mg once daily, day 14, n = 3): 12 h
- half-life ([1]; once-daily dosing for 14 days, read-out: t1/2,λz range): 76.7 to 141 h
- time to steady state in plasma concentrations ([1]; once-daily dosing for 14 days, irrespective of dose (by day 10)): 9 dosing days
- main enzymes involved in GLPG1205 metabolism [2]: cytochrome P450 (CYP) 3A4 and CYP2C19
